Data reported in article PMC9784874, “Inhibitors of HIV-1 and Cathepsin L Proteases Identified from the Insect Gall of Hypericum kouytchense” (Pharmaceuticals, 2022).
Read-outs that look alike come from different tables or passages of the source.

Legend:
[1] = tested on: HIV replication in H9 lymphocytes; design: method as in PMID 15987189; details: cited from earlier work
HIV-1 PR = biological target: T1, HIV-1 PR (Human immunodeficiency virus type 1 group M subtype B, UniProt P04585); assay: Fluorimetric HIV-1 protease inhibition assay; format: biochemical
T1 construct: 10.0, 4.0, 3.2 and 17.0 µg/mL against HIV-1 protease
Experimental: (§1) The inhibitory activities against HIV-1, Cat L and Renin PRs were assayed by fluorimetric methods using our previously published protocols.

Cat L PR = Cat L PR (Homo sapiens, UniProt P07711); assay: Fluorimetric cathepsin L protease inhibition assay; format: biochemical; details: read-out: Cat L PR Inhi% at 100.0 µg/mL
Experimental: as §1

human renin = biological target: T2, human renin (Homo sapiens, UniProt P00797); assay: Fluorimetric renin protease inhibition assay; format: biochemical; details: extracts, n = 3
T2 sequence (P00797 67-406): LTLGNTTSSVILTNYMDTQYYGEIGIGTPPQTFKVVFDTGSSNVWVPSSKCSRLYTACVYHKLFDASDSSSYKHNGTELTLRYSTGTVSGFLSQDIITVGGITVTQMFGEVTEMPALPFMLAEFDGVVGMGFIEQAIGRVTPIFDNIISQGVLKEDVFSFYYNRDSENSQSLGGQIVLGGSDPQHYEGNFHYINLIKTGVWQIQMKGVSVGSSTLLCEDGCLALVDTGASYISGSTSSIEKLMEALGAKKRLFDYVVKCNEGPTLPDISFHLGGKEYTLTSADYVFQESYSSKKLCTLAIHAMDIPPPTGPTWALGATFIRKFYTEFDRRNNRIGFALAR
Experimental: as §1

[2] = active compounds, n = 3, read-out: HIV-1 PR IC50 (converted)

Cat L PR, sequence (P07711 114-333): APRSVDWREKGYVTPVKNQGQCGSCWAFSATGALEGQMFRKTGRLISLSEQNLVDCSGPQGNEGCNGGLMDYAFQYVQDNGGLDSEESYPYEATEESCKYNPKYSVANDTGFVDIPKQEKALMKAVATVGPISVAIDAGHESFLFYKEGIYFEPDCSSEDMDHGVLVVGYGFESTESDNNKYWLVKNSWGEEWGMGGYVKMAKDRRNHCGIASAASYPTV

| Compound | therapeutic index (TI) [1] | HIV-1 PR Inhi% at 1000.0 µg/mL (HIV-1 PR; n = 3) [%] | IC50 (HIV-1 PR; [2]) [µM] | inhibition at 100 µg/mL (Cat L PR; 100.0 µg/mL, n = 3) [%] | IC50 (HIV-1 PR) [µM] | inhibition at 100 µg/mL (Cat L PR) [%] | IC50 Renin PR (human renin) [µg/mL] |
| --- | --- | --- | --- | --- | --- | --- | --- |
| C=C[C@@]1(C)COC(=O)[C@]12O[C@]1(c3ccccc3)[C@H](C2=O)[C@H]2[C@H]([C@H](C)CCC=C(C)C)CC=C(C)[C@H]21 [Biyouyanagin A] | higher than 31.3 | – | – | – | – | – | – |
| Oc1cc(O)c2c(c1)O[C@H](c1ccc(O)c(O)c1)[C@H](O)C2 [Epicatechin] | – | 66.0 ± 3.79 | 2760 | -17.7 ± 2.35 | – | – | – |
| O=C1C[C@@H](c2ccc(O)c(O)c2)Oc2cc(O)cc(O)c21 [Eriodictyol, Eriodicytiol] | – | 100.0 ± 4.98 | – | 14.3 ± 2.32 | 659 | – | – |
| Cc1cc(O)c2c(=O)c3c(O)cc(O)c4c5c(O)cc(O)c6c(=O)c7c(O)cc(C)c8c1c2c(c34)c(c78)c65 [Hypericin] | – | 100.0 ± 7.87 | – | 79.4 ± 2.02 | 3.57 | – | – |
| O=c1c(O[C@@H]2O[C@H](CO)[C@H](O)[C@H](O)[C@H]2O)c(-c2ccc(O)c(O)c2)oc2cc(O)cc(O)c12 [Hyperoside] | – | 72.6 ± 1.40 | – | 11.8 ± 2.56 | 84 | – | – |
| O=C(/C=C/c1ccc(O)cc1)c1c(O)cc(O)cc1O [Naringenin chalcone] | – | 100.0 ± 1.96 | 121 | 22.2 ± 6.77 | – | – | – |
| O=c1c(O)c(-c2ccc(O)c(O)c2)oc2cc(O)cc(O)c12 [Quercetin] | – | 50.3 ± 1.40 | – | -3.67 ± 6.59 | – | – | – |
| C[C@@H]1O[C@@H](Oc2c(-c3ccc(O)c(O)c3)oc3cc(O)cc(O)c3c2=O)[C@H](O)[C@H](O)[C@H]1O [Quercitrin] | – | 94.4 ± 7.86 | 44.6 | – | – | 16.3 ± 3.24 | – |
| C[C@@H]1O[C@@H](OC[C@H]2O[C@@H](Oc3c(-c4ccc(O)c(O)c4)oc4cc(O)cc(O)c4c3=O)[C@H](O)[C@@H](O)[C@@H]2O)[C@H](O)[C@H](O)[C@H]1O [Rutin] | – | 24.8 ± 3.85 | – | -4.81 ± 3.8 | – | – | – |
| C[C@@H]1O[C@@H](Oc2cc(O)c3c(c2)O[C@H](c2ccc(O)c(O)c2)[C@@H](O)C3=O)[C@H](O)[C@H](O)[C@H]1O [Taxifolin-7-O-rhamnoside] | – | 68.4 ± 5.45 | 1220 | 18.1 ± 0.95 | – | – | – |
| Ac–HPFV–(Sta)–LF–NH2 [Renin inhibitor] | – | – | – | – | – | – | 0.9 |
